Experimental data taken from US10266537B2, “3-acetylenyl-pyrazole-pyrimidine derivative, and preparation method therefor and uses thereof” (Si Chuan University, priority 2015, dated 2019).
Values belong to the compound of their own block, whether it stands above or below them.

Assays:
MCF-7 = test: Cell proliferation inhibition assay (MTT); assay type: cell-based; details: Homo sapiens, MCF7, 72 hours, read-out: Proliferation inhibitory activity IC50
SKBR-3 = test: Cell proliferation inhibition assay (MTT); assay type: cell-based; details: Homo sapiens, SK-BR-3, 72 hours, read-out: Proliferation inhibitory activity IC50
SAPK2a(T106M)(h) = SAPK2a(T106M)(h) (Homo sapiens (Human), UniProt Q16539, T106M); test: Kinase inhibition assay (KinaseProfiler, 33P-ATP); assay type: biochemical; details: read-out: The percentage of the remaining active protein
STK25(h) = STK25(h) (Homo sapiens (Human), UniProt O00506); test: Kinase inhibition assay (KinaseProfiler, 33P-ATP); assay type: biochemical; details: read-out: The percentage of the remaining active protein
PIP4K2a(h) = PIP4K2a(h) (Homo sapiens (Human), UniProt P48426); test: Kinase inhibition assay (KinaseProfiler, 33P-ATP); assay type: biochemical; details: read-out: The percentage of the remaining active protein
[1] = biological target: PI3 Kinase (p110a(E542K)/p85a)(h) (Homo sapiens (Human), UniProt P42336, E542K); test: Kinase inhibition assay (KinaseProfiler, 33P-ATP); assay type: biochemical; details: read-out: The percentage of the remaining active protein
CLK2(h) = CLK2(h) (Homo sapiens (Human), UniProt P49760); test: Kinase inhibition assay (KinaseProfiler, 33P-ATP); assay type: biochemical; details: read-out: The percentage of the remaining active protein
PI3 Kinase (p120g)(h) = PI3 Kinase (p120g)(h) (Homo sapiens (Human), UniProt P48736); test: Kinase inhibition assay (KinaseProfiler, 33P-ATP); assay type: biochemical; details: read-out: The percentage of the remaining active protein
A-Raf(h) = A-Raf(h) (Homo sapiens (Human), UniProt P10398); test: Kinase inhibition assay (KinaseProfiler, 33P-ATP); assay type: biochemical; details: read-out: The percentage of the remaining active protein
WNK2(h) = WNK2(h) (Homo sapiens (Human), UniProt Q9Y3S1); test: Kinase inhibition assay (KinaseProfiler, 33P-ATP); assay type: biochemical; details: read-out: The percentage of the remaining active protein
Aurora-B(h) = Aurora-B(h) (Homo sapiens (Human), UniProt Q96GD4); test: Kinase inhibition assay (KinaseProfiler, 33P-ATP); assay type: biochemical; details: read-out: The percentage of the remaining active protein
GRK6(h) = GRK6(h) (Homo sapiens (Human), UniProt P43250); test: Kinase inhibition assay (KinaseProfiler, 33P-ATP); assay type: biochemical; details: read-out: The percentage of the remaining active protein
MLCK(h) = test: Kinase inhibition assay (KinaseProfiler, 33P-ATP); assay type: biochemical, human; details: 10 μM
DNA-PK(h) = DNA-PK(h) (Homo sapiens (Human), UniProt P78527); test: Kinase inhibition assay (KinaseProfiler, 33P-ATP); assay type: biochemical; details: read-out: The percentage of the remaining active protein
PAK2(h) = PAK2(h) (Homo sapiens (Human), UniProt Q13177); test: Kinase inhibition assay (KinaseProfiler, 33P-ATP); assay type: biochemical; details: read-out: The percentage of the remaining active protein
cKit (D816H) = cKit (D816H) (Homo sapiens (Human), UniProt P10721, D816H); test: Kinase inhibition assay (KinaseProfiler, 33P-ATP); assay type: biochemical; details: cKit(D816H)(h), read-out: The percentage of the remaining active protein
cKit (D816H), sequence (P10721 26-976 D816H): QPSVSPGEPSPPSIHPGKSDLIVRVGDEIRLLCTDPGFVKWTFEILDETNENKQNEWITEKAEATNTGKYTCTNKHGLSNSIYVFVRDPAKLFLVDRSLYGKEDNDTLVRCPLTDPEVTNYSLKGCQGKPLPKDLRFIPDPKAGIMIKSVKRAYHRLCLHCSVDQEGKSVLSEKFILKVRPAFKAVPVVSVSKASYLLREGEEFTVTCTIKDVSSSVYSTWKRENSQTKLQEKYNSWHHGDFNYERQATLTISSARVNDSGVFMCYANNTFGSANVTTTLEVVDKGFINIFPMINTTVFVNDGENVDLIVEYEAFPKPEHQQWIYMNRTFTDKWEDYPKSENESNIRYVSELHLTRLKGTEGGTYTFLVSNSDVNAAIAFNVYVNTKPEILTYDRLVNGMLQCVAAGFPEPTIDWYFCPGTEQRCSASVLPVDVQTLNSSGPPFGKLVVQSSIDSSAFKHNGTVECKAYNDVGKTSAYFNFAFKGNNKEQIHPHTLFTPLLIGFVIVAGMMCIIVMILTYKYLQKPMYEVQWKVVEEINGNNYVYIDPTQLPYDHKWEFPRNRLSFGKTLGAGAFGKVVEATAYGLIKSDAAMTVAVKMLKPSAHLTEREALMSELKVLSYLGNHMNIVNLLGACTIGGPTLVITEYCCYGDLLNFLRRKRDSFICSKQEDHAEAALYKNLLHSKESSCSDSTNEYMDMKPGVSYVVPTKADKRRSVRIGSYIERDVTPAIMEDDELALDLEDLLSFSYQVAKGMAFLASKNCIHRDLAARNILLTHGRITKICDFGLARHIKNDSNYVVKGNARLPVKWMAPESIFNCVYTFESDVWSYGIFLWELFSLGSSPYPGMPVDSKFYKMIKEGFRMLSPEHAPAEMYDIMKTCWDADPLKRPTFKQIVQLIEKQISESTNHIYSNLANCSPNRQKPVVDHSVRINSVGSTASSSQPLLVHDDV

NEK2(h) = NEK2(h) (Homo sapiens (Human), UniProt P51955); test: Kinase inhibition assay (KinaseProfiler, 33P-ATP); assay type: biochemical; details: read-out: The percentage of the remaining active protein
Syk(h) = Syk(h) (Homo sapiens (Human), UniProt P43405); test: Kinase inhibition assay (KinaseProfiler, 33P-ATP); assay type: biochemical; details: read-out: The percentage of the remaining active protein
LTK(h) = LTK(h) (Homo sapiens (Human), UniProt P29376); test: Kinase inhibition assay (KinaseProfiler, 33P-ATP); assay type: biochemical; details: read-out: The percentage of the remaining active protein
LTK(h), sequence (P29376 17-864): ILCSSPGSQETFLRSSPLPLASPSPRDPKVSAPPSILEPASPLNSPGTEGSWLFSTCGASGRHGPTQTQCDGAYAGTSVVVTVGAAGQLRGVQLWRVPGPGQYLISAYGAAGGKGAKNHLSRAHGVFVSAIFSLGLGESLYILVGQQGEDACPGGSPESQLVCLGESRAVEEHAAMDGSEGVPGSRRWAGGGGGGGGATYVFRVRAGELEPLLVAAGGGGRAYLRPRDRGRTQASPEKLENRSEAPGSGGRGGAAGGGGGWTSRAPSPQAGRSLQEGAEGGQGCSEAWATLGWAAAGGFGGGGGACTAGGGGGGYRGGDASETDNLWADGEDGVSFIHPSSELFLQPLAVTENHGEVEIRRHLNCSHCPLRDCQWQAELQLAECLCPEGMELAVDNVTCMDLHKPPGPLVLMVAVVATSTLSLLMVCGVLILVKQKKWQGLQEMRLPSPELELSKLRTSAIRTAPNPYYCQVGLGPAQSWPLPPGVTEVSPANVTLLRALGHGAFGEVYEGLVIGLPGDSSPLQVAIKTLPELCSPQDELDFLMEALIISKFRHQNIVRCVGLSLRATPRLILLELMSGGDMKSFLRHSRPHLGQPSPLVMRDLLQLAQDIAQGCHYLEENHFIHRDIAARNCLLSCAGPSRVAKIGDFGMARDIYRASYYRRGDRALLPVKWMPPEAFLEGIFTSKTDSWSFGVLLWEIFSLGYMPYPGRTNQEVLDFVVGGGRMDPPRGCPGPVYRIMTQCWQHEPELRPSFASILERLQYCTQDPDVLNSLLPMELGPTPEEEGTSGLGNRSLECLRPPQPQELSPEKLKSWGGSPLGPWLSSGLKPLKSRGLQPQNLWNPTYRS

Pim-2(h) = Pim-2(h) (Homo sapiens (Human), UniProt Q9P1W9); test: Kinase inhibition assay (KinaseProfiler, 33P-ATP); assay type: biochemical; details: read-out: The percentage of the remaining active protein
SGK(h) = SGK(h) (Homo sapiens (Human), UniProt O00141); test: Kinase inhibition assay (KinaseProfiler, 33P-ATP); assay type: biochemical; details: read-out: The percentage of the remaining active protein
CDK6/cyclinD3(h) = CDK6/cyclinD3(h) (Homo sapiens (Human), UniProt Q00534); test: Kinase inhibition assay (KinaseProfiler, 33P-ATP); assay type: biochemical; details: read-out: The percentage of the remaining active protein
Plk3(h) = Plk3(h) (Homo sapiens (Human), UniProt Q9H4B4); test: Kinase inhibition assay (KinaseProfiler, 33P-ATP); assay type: biochemical; details: read-out: The percentage of the remaining active protein
[2] = biological target: PI3 Kinase (p110a/p85a)(m) (Mus musculus (Mouse), UniProt P42337); test: Kinase inhibition assay (KinaseProfiler, 33P-ATP); assay type: biochemical; details: read-out: The percentage of the remaining active protein
PI3 Kinase (p110a/p85a)(m), sequence (P42337 whole entry): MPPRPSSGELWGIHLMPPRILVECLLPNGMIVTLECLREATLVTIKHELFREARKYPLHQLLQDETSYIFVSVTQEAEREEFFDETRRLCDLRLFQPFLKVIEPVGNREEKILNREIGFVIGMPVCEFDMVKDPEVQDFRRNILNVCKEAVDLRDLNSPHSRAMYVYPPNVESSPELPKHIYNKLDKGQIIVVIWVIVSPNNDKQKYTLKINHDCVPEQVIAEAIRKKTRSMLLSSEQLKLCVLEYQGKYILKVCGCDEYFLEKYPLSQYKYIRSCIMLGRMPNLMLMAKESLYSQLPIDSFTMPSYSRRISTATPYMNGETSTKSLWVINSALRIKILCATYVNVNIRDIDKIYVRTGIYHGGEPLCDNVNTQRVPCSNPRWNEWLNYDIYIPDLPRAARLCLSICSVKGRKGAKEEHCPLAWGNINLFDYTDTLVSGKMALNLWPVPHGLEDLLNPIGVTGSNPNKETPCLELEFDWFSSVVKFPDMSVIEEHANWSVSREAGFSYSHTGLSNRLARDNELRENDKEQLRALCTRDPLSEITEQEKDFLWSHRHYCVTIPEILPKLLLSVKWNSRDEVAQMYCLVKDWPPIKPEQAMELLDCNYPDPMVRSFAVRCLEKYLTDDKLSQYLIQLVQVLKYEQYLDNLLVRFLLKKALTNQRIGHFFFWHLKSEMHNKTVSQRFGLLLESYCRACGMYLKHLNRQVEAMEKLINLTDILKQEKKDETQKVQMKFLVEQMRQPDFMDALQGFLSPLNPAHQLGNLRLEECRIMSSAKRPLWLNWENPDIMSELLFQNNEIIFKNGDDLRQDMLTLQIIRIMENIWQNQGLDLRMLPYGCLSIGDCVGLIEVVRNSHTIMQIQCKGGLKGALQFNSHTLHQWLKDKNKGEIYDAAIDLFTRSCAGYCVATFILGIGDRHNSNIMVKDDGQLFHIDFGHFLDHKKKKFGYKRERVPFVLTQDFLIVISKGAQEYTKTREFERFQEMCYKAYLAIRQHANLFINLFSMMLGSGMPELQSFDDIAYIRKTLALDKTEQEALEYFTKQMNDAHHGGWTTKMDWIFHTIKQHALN
PI3 Kinase (p110a/p85a)(m), sequence (P26450 whole entry partner): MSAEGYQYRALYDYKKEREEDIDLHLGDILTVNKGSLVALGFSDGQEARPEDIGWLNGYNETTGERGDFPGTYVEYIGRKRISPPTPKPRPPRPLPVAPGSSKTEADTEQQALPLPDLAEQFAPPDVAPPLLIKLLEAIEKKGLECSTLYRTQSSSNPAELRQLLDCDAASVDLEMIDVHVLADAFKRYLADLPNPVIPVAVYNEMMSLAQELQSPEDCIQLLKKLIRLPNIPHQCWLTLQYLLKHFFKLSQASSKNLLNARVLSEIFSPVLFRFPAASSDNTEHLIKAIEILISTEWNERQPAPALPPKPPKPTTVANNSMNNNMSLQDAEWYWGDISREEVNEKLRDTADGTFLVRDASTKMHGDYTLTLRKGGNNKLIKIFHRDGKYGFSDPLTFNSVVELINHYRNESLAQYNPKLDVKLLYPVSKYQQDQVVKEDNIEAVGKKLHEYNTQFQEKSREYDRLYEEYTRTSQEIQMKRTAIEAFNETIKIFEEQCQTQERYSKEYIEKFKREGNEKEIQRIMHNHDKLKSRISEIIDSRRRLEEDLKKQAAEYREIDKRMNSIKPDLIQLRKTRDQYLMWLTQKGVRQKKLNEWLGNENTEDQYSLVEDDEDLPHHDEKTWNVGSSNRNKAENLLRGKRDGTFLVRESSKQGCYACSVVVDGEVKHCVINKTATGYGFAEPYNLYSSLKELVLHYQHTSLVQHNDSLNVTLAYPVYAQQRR

Tie2(Y897S)(h) = Tie2(Y897S)(h) (Homo sapiens (Human), UniProt Q02763, Y897S); test: Kinase inhibition assay (KinaseProfiler, 33P-ATP); assay type: biochemical; details: read-out: The percentage of the remaining active protein
Abl(Y253F)(h) = Abl(Y253F)(h) (Homo sapiens (Human), UniProt P00519, Y253F); test: Kinase inhibition assay (KinaseProfiler, 33P-ATP); assay type: biochemical; details: read-out: The percentage of the remaining active protein
DYRK1B(h) = DYRK1B(h) (Homo sapiens (Human), UniProt Q9Y463); test: Kinase inhibition assay (KinaseProfiler, 33P-ATP); assay type: biochemical; details: read-out: The percentage of the remaining active protein
Met(M1268T)(h) = Met(M1268T)(h) (Homo sapiens (Human), UniProt P08581, M1268T); test: Kinase inhibition assay (KinaseProfiler, 33P-ATP); assay type: biochemical; details: read-out: The percentage of the remaining active protein
EphA3 = EphA3 (Homo sapiens (Human), UniProt P29320); test: Kinase inhibition assay (KinaseProfiler, 33P-ATP); assay type: biochemical; details: EphA3(h), read-out: The percentage of the remaining active protein
Lck(h) activated = Lck(h) activated (Homo sapiens (Human), UniProt P06239); test: Kinase inhibition assay (KinaseProfiler, 33P-ATP); assay type: biochemical; details: read-out: The percentage of the remaining active protein
PKCβI(h) = PKCβI(h) (Homo sapiens (Human), UniProt P05771); test: Kinase inhibition assay (KinaseProfiler, 33P-ATP); assay type: biochemical; details: read-out: The percentage of the remaining active protein
PKCβI(h), sequence (P05771 whole entry): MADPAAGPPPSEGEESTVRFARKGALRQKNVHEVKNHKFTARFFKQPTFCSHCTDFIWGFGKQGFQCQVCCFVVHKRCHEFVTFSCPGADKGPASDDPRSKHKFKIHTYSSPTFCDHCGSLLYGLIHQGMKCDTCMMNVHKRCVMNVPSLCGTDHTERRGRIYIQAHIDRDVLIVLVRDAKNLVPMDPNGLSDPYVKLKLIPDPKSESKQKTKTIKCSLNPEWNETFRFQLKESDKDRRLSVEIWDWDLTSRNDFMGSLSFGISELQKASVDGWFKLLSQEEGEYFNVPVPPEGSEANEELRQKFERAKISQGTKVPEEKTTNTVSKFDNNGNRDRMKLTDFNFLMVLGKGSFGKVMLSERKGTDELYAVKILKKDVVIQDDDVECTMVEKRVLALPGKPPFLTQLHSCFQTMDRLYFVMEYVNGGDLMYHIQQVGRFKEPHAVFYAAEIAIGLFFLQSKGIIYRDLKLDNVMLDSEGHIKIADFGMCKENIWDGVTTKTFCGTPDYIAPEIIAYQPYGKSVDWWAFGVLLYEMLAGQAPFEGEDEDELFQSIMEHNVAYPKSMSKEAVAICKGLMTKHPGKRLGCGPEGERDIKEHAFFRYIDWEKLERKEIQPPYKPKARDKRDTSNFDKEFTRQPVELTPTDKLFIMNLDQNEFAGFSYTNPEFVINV

AMPKα1(h) = AMPKα1(h) (Homo sapiens (Human), UniProt Q13131); test: Kinase inhibition assay (KinaseProfiler, 33P-ATP); assay type: biochemical; details: read-out: The percentage of the remaining active protein
Rsk4(h) = Rsk4(h) (Homo sapiens (Human), UniProt Q9UK32); test: Kinase inhibition assay (KinaseProfiler, 33P-ATP); assay type: biochemical; details: read-out: The percentage of the remaining active protein
GSK3α(h) = GSK3α(h) (Homo sapiens (Human), UniProt P49840); test: Kinase inhibition assay (KinaseProfiler, 33P-ATP); assay type: biochemical; details: read-out: The percentage of the remaining active protein
GSK3α(h), sequence (P49840 whole entry): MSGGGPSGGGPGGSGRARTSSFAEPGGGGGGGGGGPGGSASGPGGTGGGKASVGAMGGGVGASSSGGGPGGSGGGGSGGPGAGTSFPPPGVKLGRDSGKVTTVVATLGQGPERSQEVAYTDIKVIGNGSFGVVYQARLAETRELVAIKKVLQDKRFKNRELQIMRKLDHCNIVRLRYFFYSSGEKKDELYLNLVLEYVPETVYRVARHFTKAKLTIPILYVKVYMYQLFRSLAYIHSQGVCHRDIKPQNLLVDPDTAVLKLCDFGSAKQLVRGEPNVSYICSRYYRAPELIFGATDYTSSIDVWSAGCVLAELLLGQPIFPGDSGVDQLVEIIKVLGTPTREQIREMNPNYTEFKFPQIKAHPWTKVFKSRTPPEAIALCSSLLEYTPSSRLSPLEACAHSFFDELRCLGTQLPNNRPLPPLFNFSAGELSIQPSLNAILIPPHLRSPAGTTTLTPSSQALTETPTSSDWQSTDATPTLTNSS

JNK3(h) = JNK3(h) (Homo sapiens (Human), UniProt P53779); test: Kinase inhibition assay (KinaseProfiler, 33P-ATP); assay type: biochemical; details: read-out: The percentage of the remaining active protein
cKit(D816V)(h) = cKit(D816V)(h) (Homo sapiens (Human), UniProt P10721, D816V); test: Kinase inhibition assay (KinaseProfiler, 33P-ATP); assay type: biochemical; details: read-out: The percentage of the remaining active protein
cKit(D816V)(h), sequence (P10721 26-976 D816V): as the sequence (P10721 26-976 D816H) above, with H791V counted along it

IC50 (MCF-7): 1990 nM
IC50 (SKBR-3): 1260 nM
SMILES: Cc1ccc(NC(=O)c2cccc(C(F)(F)F)c2)cc1C#Cc1nn(C2CCN(C)CC2)c2ncnc(N)c12 [Compound 31]

remaining activity at 10 µM (SAPK2a(T106M)(h)): 88%
remaining activity at 10 µM (STK25(h)): 66%
remaining activity at 10 µM (PIP4K2a(h)): 100%
remaining activity at 10 µM [1]: 85%
remaining activity at 10 µM (CLK2(h)): 47%
remaining activity at 10 µM (PI3 Kinase (p120g)(h)): 87%
remaining activity at 10 µM (A-Raf(h)): 7%
remaining activity at 10 µM (WNK2(h)): 105%
remaining activity at 10 µM (Aurora-B(h)): 475%
remaining activity at 10 µM (GRK6(h)): 100%
The percentage of the remaining active protein (MLCK(h)): 62%
remaining activity at 10 µM (DNA-PK(h)): 94%
remaining activity at 10 µM (PAK2(h)): 68%
remaining activity at 10 µM (cKit (D816H)): 1%
remaining activity at 10 µM (NEK2(h)): 117%
remaining activity at 10 µM (Syk(h)): 95%
remaining activity at 10 µM (LTK(h)): 73%
remaining activity at 10 µM (Pim-2(h)): 112%
remaining activity at 10 µM (SGK(h)): 90%
remaining activity at 10 µM (CDK6/cyclinD3(h)): 120%
remaining activity at 10 µM (Plk3(h)): 93%
remaining activity at 10 µM [2]: 90%
remaining activity at 10 µM (Tie2(Y897S)(h)): 0%
remaining activity at 10 µM (Abl(Y253F)(h)): 0%
remaining activity at 10 µM (DYRK1B(h)): 92%
remaining activity at 10 µM (Met(M1268T)(h)): 136%
remaining activity at 10 µM (EphA3): 3%
remaining activity at 10 µM (Lck(h) activated): 0%
remaining activity at 10 µM (PKCβI(h)): 100%
remaining activity at 10 µM (AMPKα1(h)): 109%
remaining activity at 10 µM (Rsk4(h)): 44%
remaining activity at 10 µM (GSK3α(h)): 79%
remaining activity at 10 µM (JNK3(h)): 40%
remaining activity at 10 µM (cKit(D816V)(h)): 9%
SMILES: Cc1ccc(NC(=O)c2ccc(C)c(C(F)(F)F)c2)cc1C#Cc1nn([C@H]2CC[C@H](O)CC2)c2ncnc(N)c12 [Compound 93]
